# Laboratory results published in patent US6525001B1, “Substituted pyrimidine and pyridine herbicides” (Mid-American Commercialization Corporation, priority 1997, dated 2003).
# Key:
# Assay in all cases: Test B pre-/postemergence
# Format in all cases: in vivo
# Parameters in all cases: key: 0 is no effect; 10 is complete control
# [1] = tested on: bedstraw (Galium aparine)
# From the text: (§1) Seeds of bedstraw (Galium aparine), blackgrass (Alopecurus myosuroides), broadleaf signalgrass (Brachiaria decumbens), cocklebur (Xanthium strumarium), corn (Zea mays), crabgrass (Digitaria sanguinalis), giant foxtail (Setaria faberii), lambsquarters (Chenopodium album), momingglory (Ipomoea hederacea), pigweed (Amaranthus retroflexus), rape (Brassica napus), soybean (Glycine max), sugar beet (Beta vulgaris), velvetleaf (Abutilon theophrasti), wheat (Triticum aestivum), wild oat (Avena fatua) and purple nutsedge (Cyperus rotundus) tubers were planted and treated preemergence with test chemicals formulated in a non-phytotoxic solvent mixture which included a surfactant.
# (§2) At the same time, these crop and weed species were also treated with postemergence applications of test chemicals formulated in the same manner. Plants ranged in height from 2 to 18 cm (1- to 4-leaf stage) for postemergence treatments. Plant species in the flood test consisted of rice (Oryza sativa), smallflower flatsedge (Cyperus difformis), duck salad (Heteranthera limosa) and bamyardgrass (Echinochloa crus-galli) grown to the 2-leaf stage for testing. Treated plants and controls were maintained in a greenhouse for twelve to sixteen days, after which all species were compared to controls and visually evaluated. Plant response ratings, summarized in Table B, are based on a scale of 0 to 10 where 0 is no effect and 10 is complete control. A dash (−) response means no test result.
# [2] = tested on: blackgrass (Alopecurus myosuroides)
# From the text: as §1, §2
# [3] = tested on: broadleaf signalgrass (Brachiaria decumbens)
# From the text: as §1, §2
# [4] = tested on: cocklebur (Xanthium strumarium)
# From the text: as §1, §2
# corn (Zea mays) = tested on: corn (Zea mays)
# From the text: as §1, §2
# [5] = tested on: crabgrass (Digitaria sanguinalis)
# From the text: as §1, §2
# [6] = tested on: giant foxtail (Setaria faberii)
# From the text: as §1, §2
# [7] = tested on: momingglory (Ipomoea hederacea)
# From the text: as §1, §2
# [8] = tested on: pigweed (Amaranthus retroflexus)
# From the text: as §1, §2
# [9] = tested on: purple nutsedge (Cyperus rotundus)
# From the text: as §1, §2
# rape (Brassica napus) = tested on: rape (Brassica napus)
# From the text: as §1, §2
# soybean (Glycine max) = tested on: soybean (Glycine max)
# From the text: as §1, §2
# [10] = tested on: sugar beet (Beta vulgaris)
# From the text: as §1, §2
# [11] = tested on: velvetleaf (Abutilon theophrasti)
# From the text: as §1, §2
# [12] = tested on: wheat (Triticum aestivum)
# From the text: as §1, §2
# wild oat (Avena fatua) = tested on: wild oat (Avena fatua)
# From the text: as §1, §2
smiles,measurement,setting,value
Cc1cnc(-c2ccc(C(F)(F)F)cc2)nc1Cn1cnc(C(F)(F)F)n1 [Compound 11],"Plant response rating, Bedstraw","[1]; Rate 62 g/ha, Postemergence",8
same,Bedstraw plant response rating,"[1]; Rate 62 g/ha, Preemergence",5
same,"Plant response rating, Bedstraw","[1]; Rate 125 g/ha, Postemergence",9
same,Bedstraw plant response rating,"[1]; Rate 125 g/ha, Preemergence",8
same,"Plant response rating, Bedstraw","[1]; Rate 250 g/ha, Postemergence",10
same,"Plant response rating, Bedstraw","[1]; Rate 250 g/ha, Preemergence",9
same,"Plant response rating, Bedstraw","[1]; Rate 500 g/ha, Postemergence",10
same,"Plant response rating, Bedstraw","[1]; Rate 500 g/ha, Preemergence",9
same,"Plant response rating, Blackgrass","[2]; Rate 62 g/ha, Postemergence",2
same,Blackgrass plant response rating,"[2]; Rate 62 g/ha, Preemergence",3
same,"Plant response rating, Blackgrass","[2]; Rate 125 g/ha, Postemergence",3
same,Blackgrass plant response rating,"[2]; Rate 125 g/ha, Preemergence",3
same,"Plant response rating, Blackgrass","[2]; Rate 250 g/ha, Postemergence",7
same,"Plant response rating, Blackgrass","[2]; Rate 250 g/ha, Preemergence",5
same,"Plant response rating, Blackgrass","[2]; Rate 500 g/ha, Postemergence",5
same,"Plant response rating, Blackgrass","[2]; Rate 500 g/ha, Preemergence",5
same,"Plant response rating, B. signalgrass","[3]; Rate 62 g/ha, Postemergence",3
same,B. signalgrass plant response rating,"[3]; Rate 62 g/ha, Preemergence",2
same,"Plant response rating, B. signalgrass","[3]; Rate 125 g/ha, Postemergence",3
same,B. signalgrass plant response rating,"[3]; Rate 125 g/ha, Preemergence",3
same,"Plant response rating, B. signalgrass","[3]; Rate 250 g/ha, Postemergence",4
same,"Plant response rating, B. signalgrass","[3]; Rate 250 g/ha, Preemergence",8
same,"Plant response rating, B. signalgrass","[3]; Rate 500 g/ha, Postemergence",7
same,"Plant response rating, B. signalgrass","[3]; Rate 500 g/ha, Preemergence",8
same,"Plant response rating, Cocklebur","[4]; Rate 62 g/ha, Postemergence",7
same,Cocklebur plant response rating,"[4]; Rate 62 g/ha, Preemergence",0
same,"Plant response rating, Cocklebur","[4]; Rate 125 g/ha, Postemergence",8
same,"Plant response rating, Cocklebur","[4]; Rate 250 g/ha, Postemergence",9
same,"Plant response rating, Cocklebur","[4]; Rate 250 g/ha, Preemergence",3
same,"Plant response rating, Cocklebur","[4]; Rate 500 g/ha, Postemergence",9
same,"Plant response rating, Corn","corn (Zea mays); Rate 62 g/ha, Postemergence",3
same,Corn plant response rating,"corn (Zea mays); Rate 62 g/ha, Preemergence",0
same,"Plant response rating, Corn","corn (Zea mays); Rate 125 g/ha, Postemergence",3
same,Corn plant response rating,"corn (Zea mays); Rate 125 g/ha, Preemergence",0
same,"Plant response rating, Corn","corn (Zea mays); Rate 250 g/ha, Postemergence",3
same,"Plant response rating, Corn","corn (Zea mays); Rate 250 g/ha, Preemergence",0
same,"Plant response rating, Corn","corn (Zea mays); Rate 500 g/ha, Postemergence",3
same,"Plant response rating, Corn","corn (Zea mays); Rate 500 g/ha, Preemergence",0
same,"Plant response rating, Crabgrass","[5]; Rate 62 g/ha, Postemergence",2
same,Crabgrass plant response rating,"[5]; Rate 62 g/ha, Preemergence",7
same,"Plant response rating, Crabgrass","[5]; Rate 125 g/ha, Postemergence",4
same,Crabgrass plant response rating,"[5]; Rate 125 g/ha, Preemergence",7
same,"Plant response rating, Crabgrass","[5]; Rate 250 g/ha, Postemergence",6
same,"Plant response rating, Crabgrass","[5]; Rate 250 g/ha, Preemergence",9
same,"Plant response rating, Crabgrass","[5]; Rate 500 g/ha, Postemergence",7
same,"Plant response rating, Crabgrass","[5]; Rate 500 g/ha, Preemergence",10
same,"Plant response rating, Giant foxtail","[6]; Rate 62 g/ha, Postemergence",2
same,Giant foxtail plant response rating,"[6]; Rate 62 g/ha, Preemergence",6
same,"Plant response rating, Giant foxtail","[6]; Rate 125 g/ha, Postemergence",4
same,Giant foxtail plant response rating,"[6]; Rate 125 g/ha, Preemergence",9
same,"Plant response rating, Giant foxtail","[6]; Rate 250 g/ha, Postemergence",5
same,"Plant response rating, Giant foxtail","[6]; Rate 250 g/ha, Preemergence",9
same,"Plant response rating, Giant foxtail","[6]; Rate 500 g/ha, Postemergence",9
same,"Plant response rating, Giant foxtail","[6]; Rate 500 g/ha, Preemergence",10
same,"Plant response rating, Morningglory","[7]; Rate 62 g/ha, Postemergence",7
same,Morningglory plant response rating,"[7]; Rate 62 g/ha, Preemergence",3
same,"Plant response rating, Morningglory","[7]; Rate 125 g/ha, Postemergence",10
same,Morningglory plant response rating,"[7]; Rate 125 g/ha, Preemergence",8
same,"Plant response rating, Morningglory","[7]; Rate 250 g/ha, Postemergence",10
same,"Plant response rating, Morningglory","[7]; Rate 250 g/ha, Preemergence",9
same,"Plant response rating, Morningglory","[7]; Rate 500 g/ha, Preemergence",10
same,"Plant response rating, Redroot pigweed","[8]; Rate 62 g/ha, Postemergence",9
same,Redroot pigweed plant response rating,"[8]; Rate 62 g/ha, Preemergence",9
same,"Plant response rating, Redroot pigweed","[8]; Rate 125 g/ha, Postemergence",10
same,Redroot pigweed plant response rating,"[8]; Rate 125 g/ha, Preemergence",9
same,"Plant response rating, Redroot pigweed","[8]; Rate 250 g/ha, Postemergence",10
same,"Plant response rating, Redroot pigweed","[8]; Rate 250 g/ha, Preemergence",10
same,"Plant response rating, Redroot pigweed","[8]; Rate 500 g/ha, Postemergence",10
same,"Plant response rating, Redroot pigweed","[8]; Rate 500 g/ha, Preemergence",10
same,"Plant response rating, Nutsedge","[9]; Rate 62 g/ha, Postemergence",1
same,"Plant response rating, Nutsedge","[9]; Rate 125 g/ha, Postemergence",1
same,Nutsedge plant response rating,"[9]; Rate 125 g/ha, Preemergence",0
same,"Plant response rating, Nutsedge","[9]; Rate 250 g/ha, Postemergence",1
same,"Plant response rating, Nutsedge","[9]; Rate 250 g/ha, Preemergence",0
same,"Plant response rating, Nutsedge","[9]; Rate 500 g/ha, Preemergence",1
same,"Plant response rating, Rape","rape (Brassica napus); Rate 62 g/ha, Postemergence",9
same,Rape plant response rating,"rape (Brassica napus); Rate 62 g/ha, Preemergence",9
same,"Plant response rating, Rape","rape (Brassica napus); Rate 125 g/ha, Postemergence",9
same,Rape plant response rating,"rape (Brassica napus); Rate 125 g/ha, Preemergence",9
same,"Plant response rating, Rape","rape (Brassica napus); Rate 250 g/ha, Postemergence",10
same,"Plant response rating, Rape","rape (Brassica napus); Rate 250 g/ha, Preemergence",10
same,"Plant response rating, Rape","rape (Brassica napus); Rate 500 g/ha, Postemergence",10
same,"Plant response rating, Rape","rape (Brassica napus); Rate 500 g/ha, Preemergence",10
same,"Plant response rating, Soybean","soybean (Glycine max); Rate 62 g/ha, Postemergence",5
same,Soybean plant response rating,"soybean (Glycine max); Rate 62 g/ha, Preemergence",1
same,"Plant response rating, Soybean","soybean (Glycine max); Rate 125 g/ha, Postemergence",7
same,Soybean plant response rating,"soybean (Glycine max); Rate 125 g/ha, Preemergence",1
same,"Plant response rating, Soybean","soybean (Glycine max); Rate 250 g/ha, Postemergence",8
same,"Plant response rating, Soybean","soybean (Glycine max); Rate 250 g/ha, Preemergence",1
same,"Plant response rating, Soybean","soybean (Glycine max); Rate 500 g/ha, Postemergence",9
same,"Plant response rating, Soybean","soybean (Glycine max); Rate 500 g/ha, Preemergence",2
same,"Plant response rating, Sugarbeets","[10]; Rate 62 g/ha, Postemergence",9
same,Sugarbeets plant response rating,"[10]; Rate 62 g/ha, Preemergence",10
same,"Plant response rating, Sugarbeets","[10]; Rate 125 g/ha, Postemergence",10
same,Sugarbeets plant response rating,"[10]; Rate 125 g/ha, Preemergence",10
same,"Plant response rating, Sugarbeets","[10]; Rate 250 g/ha, Postemergence",10
same,"Plant response rating, Sugarbeets","[10]; Rate 250 g/ha, Preemergence",10
same,"Plant response rating, Sugarbeets","[10]; Rate 500 g/ha, Postemergence",10
same,"Plant response rating, Sugarbeets","[10]; Rate 500 g/ha, Preemergence",10
same,"Plant response rating, Velvetleaf","[11]; Rate 62 g/ha, Postemergence",8
same,Velvetleaf plant response rating,"[11]; Rate 62 g/ha, Preemergence",3
same,"Plant response rating, Velvetleaf","[11]; Rate 125 g/ha, Postemergence",8
same,Velvetleaf plant response rating,"[11]; Rate 125 g/ha, Preemergence",6
same,"Plant response rating, Velvetleaf","[11]; Rate 250 g/ha, Postemergence",8
same,"Plant response rating, Velvetleaf","[11]; Rate 250 g/ha, Preemergence",8
same,"Plant response rating, Velvetleaf","[11]; Rate 500 g/ha, Postemergence",9
same,"Plant response rating, Velvetleaf","[11]; Rate 500 g/ha, Preemergence",10
same,"Plant response rating, Wheat","[12]; Rate 62 g/ha, Postemergence",2
same,Wheat plant response rating,"[12]; Rate 62 g/ha, Preemergence",0
same,"Plant response rating, Wheat","[12]; Rate 125 g/ha, Postemergence",2
same,Wheat plant response rating,"[12]; Rate 125 g/ha, Preemergence",1
same,"Plant response rating, Wheat","[12]; Rate 250 g/ha, Postemergence",3
same,"Plant response rating, Wheat","[12]; Rate 250 g/ha, Preemergence",1
same,"Plant response rating, Wheat","[12]; Rate 500 g/ha, Postemergence",3
same,"Plant response rating, Wheat","[12]; Rate 500 g/ha, Preemergence",3
same,"Plant response rating, Wild oats","wild oat (Avena fatua); Rate 62 g/ha, Postemergence",2
same,Wild oats plant response rating,"wild oat (Avena fatua); Rate 62 g/ha, Preemergence",2
same,"Plant response rating, Wild oats","wild oat (Avena fatua); Rate 125 g/ha, Postemergence",3
same,Wild oats plant response rating,"wild oat (Avena fatua); Rate 125 g/ha, Preemergence",4
same,"Plant response rating, Wild oats","wild oat (Avena fatua); Rate 250 g/ha, Postemergence",3
same,"Plant response rating, Wild oats","wild oat (Avena fatua); Rate 250 g/ha, Preemergence",4
same,"Plant response rating, Wild oats","wild oat (Avena fatua); Rate 500 g/ha, Postemergence",5
same,"Plant response rating, Wild oats","wild oat (Avena fatua); Rate 500 g/ha, Preemergence",6
